Data as given in paper PMC4727767, “Synthesis and In Vitro Biological Evaluation of 1,3,4-Oxadiazol-2(3H)-one and Tetrahydropyridazine-3,6-dione Derivatives of Fatty Acids” (Scientia Pharmaceutica, 2015).

Columns and labels:
Type in all cases: cell-based
[1] = tested on: MDA-MB-231 (Breast) cell line; assay: MTT cytotoxicity assay, MDA-MB-231; conditions: Homo sapiens, growth inhibition by 50% after 48 hr treatment
From the text: (§1) The newly synthesized compounds, 3a–d and 6a–c, combined the benefits of the aforementioned 1,3,4-oxadiazol-2(3H)-one and tetrahydropyridazine-3,6-dione moieties with their fatty acid substituent to give a new scaffold. To check the anticancer potency, the compounds 3a–d and 6a–c were screened in vitro for cytotoxicity against MDA-MB-231 (Breast), KCL-22 (Lymphoblastoid), and HeLa (cervical) cell lines, while PBMC (peripheral blood mononuclear cells) were used as a normal cell. Doxorubicin and 5-Fluorouracil were used as standard cytotoxic drugs. A period of 48 hours of drug exposure was chosen to test cytotoxicity. The MTT cell viability assay based on the conversion of the soluble yellowish MTT to the insoluble purple formazan crystal by active mitochondrial […] of living cells was used for the measurement of cell proliferation. The inhibitory concentration (IC50) of 3a–d and 6a–c compounds were screened against the MDA-MB-231, KCL-22, and HeLa cell lines as given in Table 1. The effect of standard drugs (Doxorubicin and 5-Fluorouracil) on the MDA-MB-231, KCL-22, and HeLa cell lines, and PBMC are represented in Fig. 4.
(§2) The MDA-MB-231, KCL-22, and HeLa cell lines were maintained in RPMI 1640 (Sigma Aldrich, USA) culture medium supplemented with 10% heat-inactivated fetal calf serum (Sigma Aldrich, USA), and antibiotic antimycotic solution (Sigma Aldrich, USA).
(§3) The cells were plated at a density of (5×10^4 / well) in 96-well plates and cultured for 24 hours at 37°C. The cytotoxicity of compounds was determined by the MTT assay which involves the percentage viability of a cell in response to variable doses of compounds. After incubation for 48 hours, cell proliferation was measured by adding 20 μL of MTT dye (5 mg/mL in phosphate-buffered saline) per well. The plates were incubated for 4 hours more at 37°C in a humidified chamber containing 5% CO2. Active mitochondrial dehydrogenases of living cells reduced the yellow tetrazolium salt (dye) to an insoluble purple formazan crystal. Formazan crystals formed due to the reduction of tetrazoline dye by viable cells in each well which were dissolved in 150 μL dimethyl sulfoxide, and absorbance was read at 570 nm using a plate reader (Bio-Rad). The percentage of inhibition of cell viability was determined with reference to the untreated control. To determine the IC50 value, a linear regression analysis method was used.

[2] = tested on: HeLa (cervical) cell line; assay: MTT cytotoxicity assay, HeLa; conditions: Homo sapiens, growth inhibition by 50% after 48 hr treatment
From the text: as §1, §2, §3

[3] = tested on: PBMC (peripheral blood mononuclear cells); assay: MTT cytotoxicity assay, normal cells PBMC; conditions: 48 hr treatment
From the text: as §1
Fresh blood ([…]) was provided by the Blood Bank JNMC AMU, Aligarh. After dilution with the same volume of PBS, the diluted blood sample was layered on the Ficoll-Histopaque (Sigma Aldrich, USA). The mixture was centrifuged at 400×g for 30 min at 20–22°C followed by separation of the lymphocyte layer. Then the lymphocyte layer was washed and pelleted down with three volumes of PBS twice and resuspended with RPMI-1640 media with antibiotic and antimycotic solution 10%, v/v fetal calf serum (FCS).
as §3

[4] = tested on: KCL-22 (Lymphoblastoid) cell line; assay: MTT cytotoxicity assay, KCL-22; conditions: Homo sapiens, growth inhibition by 50% after 48 hr treatment
From the text: as §1, §2, §3

C=CCCCCCCCCc1n[nH]c(=O)o1 [3a, 5-(Dec-9-en-1-yl)-1,3,4-oxadiazol-2(3H)-one]
IC50 [1]: 12.3 ± 1.6 µM
IC50 [2]: 17.1 ± 2.1 µM
IC50 [3]: 39.7 ± 1.4 µM
IC50 [4]: 15.5 ± 1.8 µM

CCCCCCCC/C=C\CCCCCCCc1n[nH]c(=O)o1 [3b, 5-[(8Z)-Heptadec-8-en-1-yl]-1,3,4-oxadiazol-2(3H)-one]
IC50 [1]: 9.3 ± 1.3 µM
IC50 [2]: 12.3 ± 2.4 µM
IC50 [3]: > 50 µM
IC50 [4]: 13.6 ± 1.3 µM

CCCCCC[C@@H](O)C/C=C\CCCCCCCc1n[nH]c(=O)o1 [3c, 5-[(8Z,11R)-11-Hydroxyheptadec-8-en-1-yl]-1,3,4-oxadiazol-2(3H)-one]
IC50 [1]: 6.3 ± 1.1 µM
IC50 [2]: 9.6 ± 1.2 µM
IC50 [3]: 46.3 ± 1.3 µM
IC50 [4]: 8.3 ± 1.2 µM

CCCCCCCCCCCCCCCCCc1n[nH]c(=O)o1 [3d, 5-Heptadecyl-1,3,4-oxadiazol-2(3H)-one]
IC50 [1]: 15.4 ± 1.8 µM
IC50 [2]: 26.2 ± 1.5 µM
IC50 [3]: 41.4 ± 1.4 µM
IC50 [4]: 11.8 ± 1.6 µM

O=c1[nH]cc(F)c(=O)[nH]1 [5-Fluorouracil, reference compound]
IC50 [1]: 2.42 ± 0.09 µM
IC50 [2]: 2.18 ± 0.8 µM
IC50 [3]: 11.1 ± 2.3 µM
IC50 [4]: 2.52 ± 1 µM

C=CCCCCCCCCC(=O)N1NC(=O)CCC1=O [6a, 1-(Undec-10-enoyl)tetrahydropyridazine-3,6-dione]
IC50 [1]: 18.9 ± 2.2 µM
IC50 [2]: 19.3 ± 1.4 µM
IC50 [3]: 44.8 ± 1.3 µM
IC50 [4]: 16.4 ± 2.1 µM

CCCCCCCC/C=C\CCCCCCCC(=O)N1NC(=O)CCC1=O [6b, 1-[(9Z)-Octadec-9-enoyl]tetrahydropyridazine-3,6-dione]
IC50 [1]: 11.1 ± 1.8 µM
IC50 [2]: 13.4 ± 2.4 µM
IC50 [3]: 43.2 ± 1.5 µM
IC50 [4]: 8.1 ± 1.4 µM

CCCCCCCCCCCCCCCC(=O)N1NC(=O)CCC1=O [6c, 1-Hexadecanoyltetrahydropyridazine-3,6-dione]
IC50 [1]: 25.7 ± 1.4 µM
IC50 [2]: 21.2 ± 1.6 µM
IC50 [3]: 43.6 ± 1.4 µM
IC50 [4]: 17.6 ± 2.2 µM

COc1cccc2c1C(=O)c1c(O)c3c(c(O)c1C2=O)C[C@@](O)(C(=O)CO)C[C@@H]3O[C@H]1C[C@H](N)[C@H](O)[C@H](C)O1 [Doxorubicin, reference compound]
IC50 [1]: 1.6 ± 0.09 µM
IC50 [2]: 1.9 ± 0.09 µM
IC50 [3]: 9.39 ± 1.9 µM
IC50 [4]: 1.1 ± 0.08 µM
